# Assay: Solubility in water at room temperature and pressure (general statement)
# Type: physicochemical
smiles,measurement,value
"CC1OC(OC2C(OC3C(CO)OC(O)C(O)C3O)OC(CO)C(O)C2O)C(O)C(O)C1O (stereo not shown) [2′-FL, 2′-fucosyllactose]",Solubility in water,soluble in water
